The values that follow come from US20070015799A1, “Glyoxalase inhibitors” (priority 2003, published 2007).

SMILES strings stand for the structures. Some results are limits rather than exact numbers.

Assay [1] addresses T1, Recombinant human glyoxalase I (Homo sapiens, UniProt Q04760).
T1 construct: made in house; host or cells: E. coli
T1 sequence (Q04760 2-184 limits assumed): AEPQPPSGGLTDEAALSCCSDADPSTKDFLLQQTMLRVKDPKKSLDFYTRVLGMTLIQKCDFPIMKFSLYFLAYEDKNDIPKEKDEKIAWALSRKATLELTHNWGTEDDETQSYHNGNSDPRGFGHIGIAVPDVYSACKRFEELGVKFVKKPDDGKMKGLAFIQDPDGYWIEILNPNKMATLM
The assay is described as follows: Glyoxalase I inhibition assay (96-well kinetic spectrophotometric assay, 240 nm). In kind it is biochemical. The conditions noted are these: for inhibition at 20 µM: 20 μM compound, Vmax relative to control without inhibitor, pH 6.6, 25° C.; for IC50: concentration giving 50% of the vehicle control response. The source says: Glyoxalase I catalyses the formation of S-D-lactoylglutathione from the hemithioacetal that forms non-enzymatically from methylglyoxal and reduced glutathione (GSH). The standard literature assay is a cuvette-based spectrophotometric method using the product of glyoxalase I, S-D-lactoylglutathione, as the chromophore (240 nm) (Racker, J. Biol. Chem. 190, 685-686 (1951); Principato et al., Biochem International 6, 249-255 (1983)). This literature method was modified for use as a 96-well plate, kinetic assay.
The buffer (0.1M potassium phosphate buffer pH 6.6) and inhibitors are added to appropriate wells of a 96 well plate. Methylglyoxal (prepared in potassium phosphate buffer pH 6.6) and reduced glutathione (prepared in potassium phosphate buffer pH 6.6) are added to appropriate wells. These reagents are incubated for 15 minutes, shaking at room temperature to allow the formation of the hemithioacetal substrate of glyoxalase I. Recombinant human glyoxalase I (expressed in E. coli. and purified by S-hexylglutathione-agarose chromatography as described in Ridderstorm M. and Mannervik B., Biochem J. 314, 463-467 (1996)) is added and the plate is shaken briefly, before being placed in a Spectra Max 190 microplate spectrophotometer (Molecular Devices) at 25° C. Absorbance is monitored at 240 nm, with readings being taken every 30 seconds. The reaction is monitored for 15 minutes and PathCheck® measurements are taken on completion of the assay and the absorbance values normalized to a 1 cm pathlength. The integral software determines the Vmax using the first 20 readings. S-hexylglutathione is used as a positive control in the assays.
Data are expressed as a percentage of the control Vmax, measured in the absence of inhibitor.
Compounds iv, A, ix and E from examples 1 to 4 above respectively were subjected to the above glyoxalase I binding assay at a concentration of 20 μM (20 micromolar). Inhibitory effects are expressed in table 2 as either IC50 values, defined as the concentration, in μM, of the compound that results in 50% of the vehicle control response, or as the percentage of the vehicle control response at the highest concentration of compound tested.

Assay [2] has as its system HL60 (human promyelocytic leukaemia) cells. The assay is described as follows: HL60 cell assay (WST-1 growth inhibition). It counts as cell-based. The conditions noted are these: for IC50: concentration giving 50% of the vehicle control response; for % proliferation inhibition in HL60s: highest concentration tested (range 20-1.25 μM), mean of six replicates. The method, then: HL60 (human promyelocytic leukaemia) cells were seeded (50 μl/well) at a density between 0.25-0.4×10^5/ml in a 96 multi-well plate. Twenty four hours later 50 μl. of the relevant compound dilution made up in culture medium was added to the wells (final concentration range 20-1.25 μM in 0.1% DMSO). After incubating at 37° C. in a 5% CO2 atmosphere for a further 72 hours, assessment of growth inhibitory effects of compounds was measured using a colorimetric assay that is based on the cleavage of the tetrazolium salt WST-1 (Roche) by mitochondrial dehydrogenase in viable cells. WST-1 reagent (10 μl) was added to each well and the plate was agitated for 1 min. After a 3-4 hour incubation at 37° C. in a 5% CO2 incubator the absorbance at 450 nm was read spectrophotometrically, after subtraction of a reference wavelength absorbance, at […].
Compounds iv, ix and E from examples 1, 3 and 4 above respectively were subjected to the above cell assay. Results were the mean of six replicates and were expressed as the percentage of the DMSO vehicle control response. Inhibitory effects are expressed in table 3 in the form of either IC50 values, which was defined as the concentration (μM) of compound that results in 50% of the vehicle control response, or as the % of vehicle control response at the highest concentration of compound tested.

Where [3] appears, read: Homo sapiens, HL-60, 72 hours incubation.

`COc1ccc(-c2cc(-c3cccs3)nc(SC(C(=O)O)c3ccccc3)c2C#N)cc1` (stereo not shown) [Compound 11]: the inhibition at 20 µM in assay [1] was ≥ 30%.
`O=C(O)C(Sc1ccc(CN(O)C(=O)c2ccccc2)cc1)c1ccccc1` (stereo not shown) [A, {4-[(Benzoyl-hydroxy-amino)-methyl]-phenylsulfanyl)-phenyl-acetic acid]: in assay [1], the half-inhibitory concentration (IC50) turned out to be 9.7 µM.
For the molecule `COc1ccc(-c2cc(-c3ccccc3)nc(SCc3ccccc3C(=O)O)c2C#N)cc1` [Compound 4], the inhibition at 20 µM in assay [1] is ≥ 30%.
On to `CCOC(=O)C(Sc1ccc(CN(O)C(=O)c2ccccc2)cc1)c1ccccc1` (stereo not shown) [iv, {4-[(Benzoyl-hydroxy-amino)-methyl]-phenylsulfanyl}-phenyl-acetic acid ethyl ester], for which, in assay [2] (setting [3]), the midpoint of inhibition, the IC50, lay at 8.3 µM. The “% proliferation inhibition in HL60s” value in assay [2] (72 hours incubation) was determined as 80%. In addition, in assay [1], the inhibition at 20 µM is 28.5%.
`Cc1ccc(-c2cc(-c3ccccc3)c(C#N)c(SCC(=O)Nc3ccc(C(=O)O)cc3)n2)cc1` [Compound 9]: the inhibition at 20 µM in assay [1] was ≥ 30%.
Regarding `O=C(CSc1ccccc1C(=O)O)c1ccc(-c2ccccc2)cc1` [Compound 3, 2-(2-Biphenyl-4-yl-2-oxo-ethylsulfanyl)-benzoic acid], the inhibition at 20 µM in assay [1] is ≥ 30%.
Same read-out and setting: the same measure for `N#Cc1c(-c2cccs2)cc(-c2cccs2)nc1SC(C(=O)O)c1ccccc1` (stereo not shown) [Compound 13]: ≥ 30%.
Turning to `CCOC(=O)c1ccccc1SCC(=O)c1ccc(-c2ccccc2)cc1` [ethyl ester of compound 3], in assay [2] (72 hours incubation), the IC50 amounted to 7.5 µM and the “% proliferation inhibition in HL60s” value worked out at 72%.
As for `O=C(O)c1ccccc1CSc1ccc(CN(O)C(=O)c2ccccc2)cc1` [E, 2-{4-[(Benzoyl-hydroxy-amino)-methyl]-phenylsulfanylmethyl}-benzoic acid], the “% proliferation inhibition in HL60s” value in assay [2] (72 hours incubation) is recorded as 4%. In addition, the concentration for half-maximal inhibition (IC50) in assay [1] lay in the range of 1.9 to 2.26 µM.
Regarding `N#Cc1c(-c2ccc(Cl)cc2)cc(-c2cccs2)nc1SC(C(=O)O)c1ccccc1` (stereo not shown) [Compound 1], the inhibition at 20 µM in assay [1] was ≥ 30%.
For the molecule `COC(=O)c1ccccc1CSc1ccc(CN(O)C(=O)c2ccccc2)cc1` [Compound ix, 2-{4-[(Benzoyl-hydroxy-amino)-methyl]-phenylsulfanylmethyl}-benzoic acid methyl ester], in assay [2] (setting [3]), half-maximal inhibition (IC50) was put at 15 µM. In addition, the inhibition at 20 µM in assay [1] is 0%.
On to `CC(C)C(Sc1nc(-c2ccccc2)cc(-c2ccccc2)c1C#N)C(=O)O` (stereo not shown) [Compound 25], for which, in assay [1], the inhibition at 20 µM was ≥ 30%.
The same measure, in the same setting: then `COc1ccc(-c2cc(-c3ccccc3)nc(SC(C(=O)O)c3ccccc3)c2C#N)cc1` (stereo not shown) [Compound 2], with ≥ 30%; and `N#Cc1c(-c2ccccc2)cc(-c2cccs2)nc1SC(C(=O)O)c1ccccc1` (stereo not shown) [Compound 14], with ≥ 30%.
